This is an account of results in paper PMC12264943, “Identification of New Human P2X7 Antagonists Using Ligand- and Structure-Based Virtual Screening” (Journal of Chemical Information and Modeling, 2025).

As usually defined, the IC50 is the point on the concentration scale where inhibition reaches its midpoint. As usually defined, the inhibition is how much of the control response was suppressed.

Holding throughout (assay type): cell-based
Data set [1] concerns the target T1, hP2X7 (Homo sapiens, UniProt Q99572).
T1 construct: expressed in transfected cells; host or cells: HEK-293, stably transfected (gift of E. Adinolfi's group, Ferrara University)
T1 sequence (Q99572 1-595): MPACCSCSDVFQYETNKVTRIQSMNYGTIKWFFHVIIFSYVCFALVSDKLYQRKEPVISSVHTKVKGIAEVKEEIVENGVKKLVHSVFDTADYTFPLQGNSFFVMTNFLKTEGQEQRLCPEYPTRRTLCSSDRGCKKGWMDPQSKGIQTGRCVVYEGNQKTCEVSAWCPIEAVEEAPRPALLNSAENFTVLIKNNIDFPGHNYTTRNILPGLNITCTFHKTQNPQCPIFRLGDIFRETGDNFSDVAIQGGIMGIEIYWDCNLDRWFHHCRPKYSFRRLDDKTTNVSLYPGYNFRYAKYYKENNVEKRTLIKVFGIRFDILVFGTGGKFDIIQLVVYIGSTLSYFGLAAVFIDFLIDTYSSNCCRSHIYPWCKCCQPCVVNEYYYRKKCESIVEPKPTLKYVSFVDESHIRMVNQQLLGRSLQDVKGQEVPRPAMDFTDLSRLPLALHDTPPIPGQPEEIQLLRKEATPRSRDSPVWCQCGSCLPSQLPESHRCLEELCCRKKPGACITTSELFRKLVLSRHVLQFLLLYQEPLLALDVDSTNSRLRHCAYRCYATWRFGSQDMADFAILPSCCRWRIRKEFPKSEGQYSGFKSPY
Put plainly: YO-PRO 1 dye uptake assay, HEK-293 cells stably transfected with hP2X7. The following applies: for hP2X7 inhibition in YO-PRO 1 dye uptake, SAR / reduction of hP2X7 activity: analogues at 10 μM; for hP2X7 inhibition in YO-PRO 1 dye uptake, SAR: 1 mM ATP; for reduction of hP2X7 activity: YO-PRO 1, 1 mM ATP, 0.1% DMSO. As to the method:
(§1) Astrocytoma 1321 N1 (established by Dr. Gaia Pasqualetto) and HEK-293 (kindly gifted by E. Adinolfi’s group, Ferrara University) both stably transfected with hP2X7, were used to assess the activity of the small molecules selected from the VS. Cells were maintained in DMEM:F12 (PanBiotech) supplemented with 10% FBS, 1% pen-strep, and 150 μg/mL G418 (PanBiotech).
Astrocytoma 1321 N1 cells (2–2.5 × 10^4 cells/well) and HEK-293 cells (4–5 × 10^4 cells/well) expressing hP2X7 were seeded in poly-L-lysine-coated 96-well plates (Sarstedt) 24 h before the experiment. YO-PRO 1 dye was prepared at 5 μM in extracellular solution with low divalent cations (ECS-LD) buffer (147 mM NaCl, 10 mM HEPES, 13 mM glucose, 0.2 mM CaCl2, 2 mM KCl, pH 7.4) and added to cells after washing them with Dulbecco’s phosphate- buffered saline (DPBS) (PanBiotech) and incubated for 20 min at 37 °C. ATP-induced dye uptake, mediated by hP2X7 activation, was monitored using a Clariostar plate reader (excitation: 485 nm; emission: 538 nm) for 30 cycles (75–150 s/cycle), after recording the baseline for five cycles. hP2X7 activation was quantified at cycle 10 by calculating the fluorescence intensity (FI) ratio (Δ(Fcycle 10–F cycle 1)/cycle time).
Compounds 2 and 9, identified as hits, were further evaluated for concentration-dependent inhibition (IC50) of hP2X7 activation in the YO-PRO 1 dye uptake assay using HEK-293 cells stably transfected with hP2X7 (unfortunately, at this point in the study, the stably transfected 1321N1 cells lost P2X7 expression, and we were unable to recover them from frozen aliquots), for which the ATP EC50 was determined to be approximately 1 mM (Supporting material Figure 4C). Seven concentrations (100 to 0.03 μM) were tested, but due to precipitation at 100 μM, the DMSO concentration was increased to 1%.
3 Inhibitory concentration response evaluation of compounds 2 and 9 and their groups highlighted for SAR. […] Compound activity was evaluated along a time of 20 min (75 s per cycle) after ATP addition (700 μM). The fluorescence intensity (FI) values of the first 10 cycles were considered for assessing their ability to inhibit hP2X7. The curves represent three biological replicates (n = 4 per replicate). Data were normalized by setting as 100% the FI recorded by hP2X7 HEK-293 cells incubated in 1% DMSO and stimulated by ATP, and as 0% the FI recorded by the same cells but treated with ECS-LD (assay buffer). (C) Highlighted areas of compound 2 considered for SAR study. R1 refers to the ethyl-benzyl group of the molecules, and R2 and R3 refer to the benzo-(1,3)-dioxol groups. (D) Highlighted areas of compound 9 considered for SAR study. We have defined the area highlighted in yellow and numbered as 1 as the “front” region of the molecule and the one colored in pink and named as 2 as the “back” region of the molecule. L highlights the urea and amide linkers of compounds 2 and 9, respectively.
(§2) 4 Evaluation of compound 2 and 9 analogue activity using YO-PRO 1 and MPR assays. The activity of compound 2 (A and B) and 9 (C and D) analogues was evaluated in YO-PRO 1 (A and C) and MPR (B and D) assays. The compounds were tested at 10 μM and preincubated for either 20 (YO-PRO 1) or 30 min (MPR). The baseline was recorded for 5 cycles before ATP treatment (1 mM). Fluorescence was recorded for 25 (YO-PRO 1) or 5 min (MPR). The data were normalized by setting as 100% for the fluorescence measured from hP2X7 HEK-293 cells incubated with vehicle (0.1% DMSO) and treated with 1 mM ATP and 0% for the fluorescence recorded by the cells not treated with ATP. The data shown correspond to three independent biological replicates (3 technical replicates per experiment; error bars represent the SEM from the mean values of each biological replicate (n = 3)). The statistical analysis was performed with one-way Anova using Dunnett’s function (P**** < 0.0001; P*** < 0.0003; P** < 0.002; P* < 0.02).

A further data set relates to HEK-293 WT cells. Briefly: Cytotoxicity assay (CellTiter Blue). Particulars: 10 μM, 24 h, nontransfected HEK-293 cells. As to the method: HEK-293 WT cells were seeded at 4 × 10^4 cells/well in 96-well plates precoated with poly-L-lysine. After 24 h, the cells were washed with DPBS and treated with test compounds (10 μM) in 2% FBS-containing medium for 24 h. After this, the medium containing the test compounds was replaced with 20% CellTiter-Blue reagent (Promega) in 2% FBS medium. After a 2-h incubation, fluorescence (excitation: […]; emission: […]) was measured using a Clariostar plate reader. Data were normalized to untreated control cells (100%) and wells without cells (0%).
5 Concentration inhibition curve determination for compound 2g (A) and evaluation of cytotoxicity for compounds 2, 9, and 2g. […] The data on the graph represent the mean from three independent experiments (n = 3 replicates per experiment). (B) The cytotoxicity of the compounds was evaluated on nontransfected HEK-293 cells using a CellTiter Blue assay. The cells were incubated for 24 h with the compounds at 10 μM. The fluorescent signal obtained from vehicle-treated cells (0.1% DMSO) was used to normalize the data to 100%, and the one obtained from wells not containing cells (BLANK) was set as 0%. The data are the combination of three biological replicates (error bars represent the SEM (n = 3)) analyzed by one-way ANOVA using Dunnet’s function (P**** < 0.0001; **< 0.002; * < 0.02; ns, non significant).
The potential cytotoxicity of the hit compounds identified, 2, 9, and 2g, was assessed at 10 μM by CellTiter Blue assay using nontransfected HEK-293 cells (Figure B).
(Alamar Blue is a resazurin reagent that responds to reducing activity.)

Data set [2] deals with T1, hP2X7. Put plainly: Membrane Potential Red (MPR) dye assay, HEK-293 cells stably transfected with hP2X7. Particulars: hP2X7 HEK-293. As to the method:
as §1
Cells were plated as described for the YO-PRO 1 dye uptake assay. MPR dye (Molecular Devices) was prepared following the manufacturer’s protocol and diluted 1:10 in ECS-LD buffer. After washing with DPBS, cells were incubated with the dye for 30 min at 37 °C. Fluorescence changes (excitation: 525 nm; emission: 560 nm) were recorded using a Clariostar plate reader during ATP-induced membrane depolarization. Baseline fluorescence was recorded for 5 cycles, and ATP was added via an automated injector (10 μL). Membrane depolarization was quantified as the ratio of the maximal fluorescence change over baseline intensity (Δ(F max–F0)/F0)).
as §2

With `O=C(Nc1ccc2c(c1)OCO2)NC(Cc1ccc(F)cc1)Cc1ccc(F)cc1` [Compound 2g], the half-maximal inhibitory concentration (IC50) on hP2X7 [1] (YO-PRO 1 dye uptake, hP2X7 HEK-293 cells, 100 to 0.03 μM, 1% DMSO, read-out: IC50, inhibition of hP2X7 activation) worked out at 1310 nM. For the same compound, at hP2X7 [1], the “hP2X7 inhibition in YO-PRO 1 dye uptake, SAR” value is “retained potency comparable to that of the hit compound” and the “reduction of hP2X7 activity” value is listed as 80%. Moreover, in the data set with HEK-293 WT cells, the “reduction in cell viability” value is on record as about 10%. On hP2X7 [2] (HEK293, 1 mM ATP), this compound showed an inhibition at 10 µM of 70%.
For `COc1ccc(CC(Cc2ccc3c(c2)OCO3)NC(=O)c2ccc(NC(C)=O)cc2)cc1` (centres unmarked) [Compound 2k], at hP2X7 [1], the “hP2X7 inhibition in YO-PRO 1 dye uptake, SAR” value is on record as “still reduced receptor activation” and the “reduction of hP2X7 activity” value worked out at 80%. Also, the “activity in MPR assay” value at hP2X7 [2] (10 μM, 1 mM ATP) was “diminished activity relative to the other structural analogues”.
